Results reported in ChEMBL document CHEMBL1201861, “Genomics of Drug Sensitity in Cancer screening data, Wellcome Trust Sanger Institute”.

How the values were obtained:
Assay in all cases: cells
HuTu80 = assay type: functional, cell-based, Homo sapiens, HUTU-80; conditions: Homo sapiens, HuTu80
Description: SANGER: Inhibition of human HUTU-80 cell growth in a cell viability assay.

ML-2 = assay type: functional, cell-based, Homo sapiens; conditions: Homo sapiens, ML-2
Description: SANGER: Inhibition of human ML-2 cell growth in a cell viability assay.

JAR = assay type: functional, cell-based, Homo sapiens; conditions: Homo sapiens, JAR
Description: SANGER: Inhibition of human JAR cell growth in a cell viability assay.

RH-1 = assay type: functional, cell-based, Homo sapiens; conditions: Homo sapiens, RH-1
Description: SANGER: Inhibition of human RH-1 cell growth in a cell viability assay.

Becker = assay type: functional, cell-based, Homo sapiens; conditions: Homo sapiens, Becker
Description: SANGER: Inhibition of human Becker cell growth in a cell viability assay.

SK-N-FI = assay type: functional, cell-based, Homo sapiens; conditions: Homo sapiens, SK-N-FI
Description: SANGER: Inhibition of human SK-N-FI cell growth in a cell viability assay.

L-363 = assay type: functional, cell-based, Homo sapiens; conditions: Homo sapiens, L-363
Description: SANGER: Inhibition of human L-363 cell growth in a cell viability assay.

TE-6 = assay type: functional, cell-based, Homo sapiens; conditions: Homo sapiens, TE-6
Description: SANGER: Inhibition of human TE-6 cell growth in a cell viability assay.

NH-12 = assay type: functional, cell-based, Homo sapiens; conditions: Homo sapiens, NH-12
Description: SANGER: Inhibition of human NH-12 cell growth in a cell viability assay.

SK-NEP-1 = assay type: functional, cell-based, Homo sapiens; conditions: Homo sapiens, SK-NEP-1
Description: SANGER: Inhibition of human SK-NEP-1 cell growth in a cell viability assay.

TE-1 = assay type: functional, cell-based, Homo sapiens; conditions: Homo sapiens, TE-1
Description: SANGER: Inhibition of human TE-1 cell growth in a cell viability assay.

CW-2 = assay type: functional, cell-based, Homo sapiens; conditions: Homo sapiens, CW-2
Description: SANGER: Inhibition of human CW-2 cell growth in a cell viability assay.

EW-11 = assay type: functional, cell-based, Homo sapiens; conditions: Homo sapiens, EW-11
Description: SANGER: Inhibition of human EW-11 cell growth in a cell viability assay.

MFM-223 = assay type: functional, cell-based, Homo sapiens; conditions: Homo sapiens, MFM-223
Description: SANGER: Inhibition of human MFM-223 cell growth in a cell viability assay.

SNU-5 = assay type: functional, cell-based, Homo sapiens; conditions: Homo sapiens, SNU-5
Description: SANGER: Inhibition of human NCI-SNU-5 cell growth in a cell viability assay.

BV-173 = assay type: functional, cell-based, Homo sapiens; conditions: Homo sapiens, BV-173
Description: SANGER: Inhibition of human BV-173 cell growth in a cell viability assay.

LS-123 = assay type: functional, cell-based, Homo sapiens; conditions: Homo sapiens, LS-123
Description: SANGER: Inhibition of human LS-123 cell growth in a cell viability assay.

C8166 = assay type: functional, cell-based, Homo sapiens; conditions: Homo sapiens, C8166
Description: SANGER: Inhibition of human C8166 cell growth in a cell viability assay.

MEG-01 = assay type: functional, cell-based, Homo sapiens; conditions: Homo sapiens, MEG-01
Description: SANGER: Inhibition of human MEG-01 cell growth in a cell viability assay.

NCI-H526 = assay type: functional, cell-based, Homo sapiens; conditions: Homo sapiens, NCI-H526
Description: SANGER: Inhibition of human NCI-H526 cell growth in a cell viability assay.

NB12 = assay type: functional, cell-based, Homo sapiens; conditions: Homo sapiens, NB12
Description: SANGER: Inhibition of human NB12 cell growth in a cell viability assay.

NMC-G1 = assay type: functional, cell-based, Homo sapiens; conditions: Homo sapiens, NMC-G1
Description: SANGER: Inhibition of human NMC-G1 cell growth in a cell viability assay.

BE-13 = assay type: functional, cell-based, Homo sapiens; conditions: Homo sapiens, BE-13
Description: SANGER: Inhibition of human BE-13 cell growth in a cell viability assay.

RCC10RGB = assay type: functional, cell-based, Homo sapiens; conditions: Homo sapiens, RCC10RGB
Description: SANGER: Inhibition of human RCC10RGB cell growth in a cell viability assay.

LNCaP-Clone-FGC = assay type: functional, cell-based, Homo sapiens; conditions: Homo sapiens, LNCaP-Clone-FGC
Description: SANGER: Inhibition of human LNCaP-Clone-FGC cell growth in a cell viability assay.

ONS-76 = assay type: functional, cell-based, Homo sapiens; conditions: Homo sapiens, ONS-76
Description: SANGER: Inhibition of human ONS-76 cell growth in a cell viability assay.

CTB-1 = assay type: functional, cell-based, Homo sapiens; conditions: Homo sapiens, CTB-1
Description: SANGER: Inhibition of human CTB-1 cell growth in a cell viability assay.

HAL-01 = assay type: functional, cell-based, Homo sapiens; conditions: Homo sapiens, HAL-01
Description: SANGER: Inhibition of human HAL-01 cell growth in a cell viability assay.

MOLT-16 = assay type: functional, cell-based, Homo sapiens; conditions: Homo sapiens, MOLT-16
Description: SANGER: Inhibition of human MOLT-16 cell growth in a cell viability assay.

GOTO = assay type: functional, cell-based, Homo sapiens; conditions: Homo sapiens, GOTO
Description: SANGER: Inhibition of human GOTO cell growth in a cell viability assay.

RPMI-8866 = assay type: functional, cell-based, Homo sapiens; conditions: Homo sapiens, RPMI-8866
Description: SANGER: Inhibition of human RPMI-8866 cell growth in a cell viability assay.

HCC1187 = assay type: functional, cell-based, Homo sapiens; conditions: Homo sapiens, HCC1187
Description: SANGER: Inhibition of human HCC1187 cell growth in a cell viability assay.

LU-139 = assay type: functional, cell-based, Homo sapiens; conditions: Homo sapiens, LU-139
Description: SANGER: Inhibition of human LU-139 cell growth in a cell viability assay.

BB65-RCC = assay type: functional, cell-based, Homo sapiens; conditions: Homo sapiens, BB65-RCC
Description: SANGER: Inhibition of human BB65-RCC cell growth in a cell viability assay.

D-247MG = assay type: functional, cell-based, Homo sapiens; conditions: Homo sapiens, D-247MG
Description: SANGER: Inhibition of human D-247MG cell growth in a cell viability assay.

DMS-79 = assay type: functional, cell-based, Homo sapiens; conditions: Homo sapiens, DMS-79
Description: SANGER: Inhibition of human DMS-79 cell growth in a cell viability assay.

NCI-N87 = assay type: functional, cell-based, Homo sapiens; conditions: Homo sapiens, NCI-N87
Description: SANGER: Inhibition of human NCI-N87 cell growth in a cell viability assay.

LB373-MEL-D = assay type: functional, cell-based, Homo sapiens; conditions: Homo sapiens, LB373-MEL-D
Description: SANGER: Inhibition of human LB373-MEL-D cell growth in a cell viability assay.

KARPAS-45 = assay type: functional, cell-based, Homo sapiens; conditions: Homo sapiens, KARPAS-45
Description: SANGER: Inhibition of human KARPAS-45 cell growth in a cell viability assay.

J-RT3-T3-5 = assay type: functional, cell-based, Homo sapiens; conditions: Homo sapiens, J-RT3-T3-5
Description: SANGER: Inhibition of human J-RT3-T3-5 cell growth in a cell viability assay.

8-MG-BA = assay type: functional, cell-based, Homo sapiens; conditions: Homo sapiens, 8-MG-BA
Description: SANGER: Inhibition of human 8-MG-BA cell growth in a cell viability assay.

COLO-824 = assay type: functional, cell-based, Homo sapiens; conditions: Homo sapiens, COLO-824
Description: SANGER: Inhibition of human COLO-824 cell growth in a cell viability assay.

IST-MES1 = assay type: functional, cell-based, Homo sapiens; conditions: Homo sapiens, IST-MES1
Description: SANGER: Inhibition of human IST-MES1 cell growth in a cell viability assay.

COLO-684 = assay type: functional, cell-based, Homo sapiens; conditions: Homo sapiens, COLO-684
Description: SANGER: Inhibition of human COLO-684 cell growth in a cell viability assay.

KY821 = assay type: functional, cell-based, Homo sapiens; conditions: Homo sapiens, KY821
Description: SANGER: Inhibition of human KY821 cell growth in a cell viability assay.

D-263MG = assay type: functional, cell-based, Homo sapiens; conditions: Homo sapiens, D-263MG
Description: SANGER: Inhibition of human D-263MG cell growth in a cell viability assay.

IA-LM = assay type: functional, cell-based, Homo sapiens; conditions: Homo sapiens, IA-LM
Description: SANGER: Inhibition of human IA-LM cell growth in a cell viability assay.

SNU-C2B = assay type: functional, cell-based, Homo sapiens; conditions: Homo sapiens, SNU-C2B
Description: SANGER: Inhibition of human SNU-C2B cell growth in a cell viability assay.

KLE = assay type: functional, cell-based, Homo sapiens; conditions: Homo sapiens, KLE
Description: SANGER: Inhibition of human KLE cell growth in a cell viability assay.

## COc1cc2ncn(-c3cc(OCc4ccccc4S(C)(=O)=O)c(C#N)s3)c2cc1OC [GSK-319347A]
HuTu80
  IC50: > 5 µM
ML-2
  IC50: > 5 µM
JAR
  IC50: > 5 µM
RH-1
  IC50: > 5 µM
Becker
  IC50: > 5 µM
SK-N-FI
  IC50: > 5 µM
L-363
  IC50: > 5 µM
TE-6
  IC50: > 5 µM
NH-12
  IC50: > 5 µM
SK-NEP-1
  IC50: > 5 µM
TE-1
  IC50: > 5 µM
CW-2
  IC50: > 5 µM
EW-11
  IC50: > 5 µM
MFM-223
  IC50: > 5 µM
SNU-5
  IC50: > 5 µM
BV-173
  IC50: > 5 µM
LS-123
  IC50: > 5 µM
C8166
  IC50: > 5 µM
MEG-01
  IC50: > 5 µM
NCI-H526
  IC50: > 5 µM
NB12
  IC50: > 5 µM
NMC-G1
  IC50: > 5 µM
BE-13
  IC50: > 5 µM
RCC10RGB
  IC50: > 5 µM
LNCaP-Clone-FGC
  IC50: > 5 µM
ONS-76
  IC50: > 5 µM
CTB-1
  IC50: > 5 µM
HAL-01
  IC50: > 5 µM
MOLT-16
  IC50: > 5 µM
GOTO
  IC50: > 5 µM
RPMI-8866
  IC50: > 5 µM
HCC1187
  IC50: > 5 µM
LU-139
  IC50: > 5 µM
BB65-RCC
  IC50: > 5 µM
D-247MG
  IC50: > 5 µM
DMS-79
  IC50: > 5 µM
NCI-N87
  IC50: > 5 µM
LB373-MEL-D
  IC50: > 5 µM
KARPAS-45
  IC50: > 5 µM
J-RT3-T3-5
  IC50: > 5 µM
8-MG-BA
  IC50: > 5 µM
COLO-824
  IC50: > 5 µM
IST-MES1
  IC50: > 5 µM
COLO-684
  IC50: > 5 µM
KY821
  IC50: > 5 µM
D-263MG
  IC50: > 5 µM

## CC1(C)CNc2cc(NC(=O)c3cccnc3NCc3ccncc3)ccc21 [MOTESANIB]
ML-2
  IC50: > 2 µM
JAR
  IC50: > 2 µM
RH-1
  IC50: > 2 µM
IA-LM
  IC50: > 2 µM
Becker
  IC50: > 2 µM
SK-N-FI
  IC50: > 2 µM
L-363
  IC50: > 2 µM
TE-6
  IC50: > 2 µM
NH-12
  IC50: > 2 µM
SK-NEP-1
  IC50: > 2 µM
TE-1
  IC50: > 2 µM
SNU-C2B
  IC50: > 2 µM
CW-2
  IC50: > 2 µM
EW-11
  IC50: > 2 µM
MFM-223
  IC50: > 2 µM
SNU-5
  IC50: > 2 µM
BV-173
  IC50: > 2 µM
LS-123
  IC50: > 2 µM
C8166
  IC50: > 2 µM
MEG-01
  IC50: > 2 µM
NCI-H526
  IC50: > 2 µM
NB12
  IC50: > 2 µM
NMC-G1
  IC50: > 2 µM
BE-13
  IC50: > 2 µM
RCC10RGB
  IC50: > 2 µM
LNCaP-Clone-FGC
  IC50: > 2 µM
ONS-76
  IC50: > 2 µM
CTB-1
  IC50: > 2 µM
HAL-01
  IC50: > 2 µM
MOLT-16
  IC50: > 2 µM
GOTO
  IC50: > 2 µM
RPMI-8866
  IC50: > 2 µM
HCC1187
  IC50: > 2 µM
LU-139
  IC50: > 2 µM
BB65-RCC
  IC50: > 2 µM
D-247MG
  IC50: > 2 µM
NCI-N87
  IC50: > 2 µM
KARPAS-45
  IC50: > 2 µM
J-RT3-T3-5
  IC50: > 2 µM
8-MG-BA
  IC50: > 2 µM
COLO-824
  IC50: > 2 µM
IST-MES1
  IC50: > 2 µM
KLE
  IC50: > 2 µM
COLO-684
  IC50: > 2 µM
KY821
  IC50: > 2 µM
D-263MG
  IC50: > 2 µM

## CC(C)c1ccccc1Cc1cc(C(=O)Nc2ccc(S(=O)(=O)c3ccccc3C(C)(C)C)cc2)c(O)c(O)c1O
HuTu80
  IC50: 0.087 µM
JAR
  IC50: 0.0026 µM
RH-1
  IC50: 0.158 µM
IA-LM
  IC50: 1.56 µM
Becker
  IC50: 0.242 µM
SK-N-FI
  IC50: 0.328 µM
TE-6
  IC50: 24.5 µM
NH-12
  IC50: 0.172 µM
TE-1
  IC50: 0.957 µM
SNU-C2B
  IC50: 0.257 µM
CW-2
  IC50: 0.446 µM
EW-11
  IC50: 0.434 µM
MFM-223
  IC50: 0.847 µM
LS-123
  IC50: 2.2 µM
NB12
  IC50: 0.136 µM
NMC-G1
  IC50: 0.505 µM
RCC10RGB
  IC50: 13.8 µM
LNCaP-Clone-FGC
  IC50: 0.535 µM
ONS-76
  IC50: 0.325 µM
GOTO
  IC50: 0.171 µM
HCC1187
  IC50: 0.425 µM
BB65-RCC
  IC50: 0.135 µM
D-247MG
  IC50: 0.936 µM
NCI-N87
  IC50: 2.2 µM
LB373-MEL-D
  IC50: 0.431 µM
8-MG-BA
  IC50: 0.154 µM
COLO-824
  IC50: 0.691 µM
IST-MES1
  IC50: 0.214 µM
KLE
  IC50: 1.94 µM
D-263MG
  IC50: 0.283 µM
